Measurements taken from ChEMBL document CHEMBL6096689, “Structure-Guided Development of ClpP Agonists with Potent Therapeutic Activities against Staphylococcus aureus Infection” (J Med Chem, 2025).
≈ marks a conversion by molar mass, not a printed value.

Test system: Staphylococcus aureus
Assay: microbe, parasite or virus in culture
Format: functional
Details: time 18 hrs
Description: Antibacterial activity against multidrug-resistant Staphylococcus aureus clinical isolate XJ025 assessed as inhibition of visible growth of bacteria incubated for 18 hrs by absorbance based analysis

SMILES	MIC [µg/mL]
CC1(C)S[C@@H]2[C@H](NC(=O)[C@H](N)c3ccccc3)C(=O)N2[C@H]1C(=O)O [AMPICILLIN]	64 (≈ 183 µM)
CN[C@@H]1[C@@H](O)[C@@H](O[C@@H]2[C@@H](O)[C@H](O[C@H]3O[C@H](CN)CC[C@H]3N)[C@@H](N)C[C@H]2N)OC[C@]1(C)O [GENTAMICIN C1A]	128 (≈ 285 µM)

Test system: Staphylococcus aureus
Assay: microbe, parasite or virus in culture
Format: functional
Details: time 18 hrs
Remark: another data set of the same source
Description: Antibacterial activity against multidrug-resistant Staphylococcus aureus clinical isolate XJ051 assessed as inhibition of visible growth of bacteria incubated for 18 hrs by absorbance based analysis

SMILES	MIC [µg/mL]
CC1(C)S[C@@H]2[C@H](NC(=O)[C@H](N)c3ccccc3)C(=O)N2[C@H]1C(=O)O [AMPICILLIN]	128 (≈ 366 µM)
CN[C@@H]1[C@@H](O)[C@@H](O[C@@H]2[C@@H](O)[C@H](O[C@H]3O[C@H](CN)CC[C@H]3N)[C@@H](N)C[C@H]2N)OC[C@]1(C)O [GENTAMICIN C1A]	> 128

Test system: Staphylococcus aureus
Assay: microbe, parasite or virus in culture
Format: functional
Details: NRS-271, time 18 hrs
Description: Antibacterial activity against methicillin-resistant Staphylococcus aureus NRS-271 assessed as inhibition of visible growth of bacteria incubated for 18 hrs by absorbance based analysis

SMILES	MIC [µg/mL]
CC1(C)S[C@@H]2[C@H](NC(=O)[C@H](N)c3ccccc3)C(=O)N2[C@H]1C(=O)O [AMPICILLIN]	32 (≈ 91.6 µM)
CN[C@@H]1[C@@H](O)[C@@H](O[C@@H]2[C@@H](O)[C@H](O[C@H]3O[C@H](CN)CC[C@H]3N)[C@@H](N)C[C@H]2N)OC[C@]1(C)O [GENTAMICIN C1A]	0.5 (≈ 1.11 µM)

Test system: Staphylococcus aureus
Assay: microbe, parasite or virus in culture
Format: functional
Details: Newman, time 18 hrs
Description: Antibacterial activity against Staphylococcus aureus Newman assessed as inhibition of visible growth of bacteria incubated for 18 hrs by absorbance based analysis

SMILES	MIC [µg/mL]
CCCNC(=O)N1CCC(=O)N2[C@@H]([C@@H](C)CC)C(=O)N(Cc3cccc4ccccc34)C[C@H]12	16 (≈ 35.5 µM)
CC[C@H](C)[C@H]1C(=O)N(Cc2cccc3ccccc23)C[C@@H]2N(C(=O)NCCC3CC3)CCC(=O)N12	2 (≈ 4.2 µM)
CC1(C)S[C@@H]2[C@H](NC(=O)[C@H](N)c3ccccc3)C(=O)N2[C@H]1C(=O)O [AMPICILLIN]	0.25 (≈ 0.715 µM)
O=C1[C@H](Cc2ccccc2)N2C(=O)CCN(C(=O)NCc3ccccc3)[C@H]2CN1Cc1cccc2ccccc12	8 (≈ 15 µM)
CC[C@H](C)[C@H]1C(=O)N(Cc2ccc(Cl)cc2Cl)C[C@@H]2N(C(=O)NCCCC(F)(F)F)CCC(=O)N12	32 (≈ 59.5 µM)
CN[C@@H]1[C@@H](O)[C@@H](O[C@@H]2[C@@H](O)[C@H](O[C@H]3O[C@H](CN)CC[C@H]3N)[C@@H](N)C[C@H]2N)OC[C@]1(C)O [GENTAMICIN C1A]	0.5 (≈ 1.11 µM)
CC[C@H](C)[C@H]1C(=O)N(Cc2cccc3ccccc23)C[C@@H]2N(C(=O)NCCC(C)=O)CCC(=O)N12	> 128
C#CC[C@H]1C(=O)N(Cc2cccc3ccccc23)C[C@@H]2N(C(=O)NCCCC(F)(F)F)CCC(=O)N21	4 (≈ 7.99 µM)
CC[C@@H](C)[C@H]1C(=O)N(Cc2cccc3ccccc23)C[C@@H]2N(C(=O)NCc3ccc(Br)cc3)CCC(=O)N12	4 (≈ 6.93 µM)
CC[C@H](C)[C@H]1C(=O)N(Cc2cccc3ccccc23)C[C@@H]2N(C(=O)NCCC3CCOC3)CCC(=O)N12 (some centres not stated)	128 (≈ 253 µM)
CC[C@H](C)[C@H]1C(=O)N(Cc2ccc(Br)c3ccccc23)C[C@@H]2N(C(=O)NCCCC(F)(F)F)CCC(=O)N12	4 (≈ 6.69 µM)

More lines, now with the values ahead:

MIC [µg/mL]	SMILES
4 (≈ 7.71 µM)	CC(C)C[C@H]1C(=O)N(Cc2cccc3ccccc23)C[C@@H]2N(C(=O)NCCCC(F)(F)F)CCC(=O)N21
4 (≈ 7.74 µM)	O=C1[C@H](CC2CC2)N2C(=O)CCN(C(=O)NCCCC(F)(F)F)[C@H]2CN1Cc1cccc2ccccc12
4 (≈ 7.96 µM)	C=CC[C@H]1C(=O)N(Cc2cccc3ccccc23)C[C@@H]2N(C(=O)NCCCC(F)(F)F)CCC(=O)N21
4 (≈ 8.02 µM)	CC[C@H](C)[C@H]1C(=O)N(Cc2cccc3ccccc23)C[C@@H]2N(C(=O)NCc3ccccc3)CCC(=O)N12
16 (≈ 35 µM)	C[C@H]1C(=O)N(Cc2cccc3ccccc23)C[C@@H]2N(C(=O)NCc3ccccc3)CCC(=O)N21
16 (≈ 32.1 µM)	CC(C)C[C@H]1C(=O)N(Cc2cccc3ccccc23)C[C@@H]2N(C(=O)NCc3ccccc3)CCC(=O)N21
64 (≈ 135 µM)	O=C1[C@H](CO)N2C(=O)CCN(C(=O)NCc3ccccc3)[C@H]2CN1Cc1cccc2ccccc12
2 (≈ 3.58 µM)	O=C1[C@H](CC2CCCCC2)N2C(=O)CCN(C(=O)NCCCC(F)(F)F)[C@H]2CN1Cc1cccc2ccccc12
8 (≈ 16.7 µM)	CCCC(C)NC(=O)N1CCC(=O)N2[C@@H]([C@@H](C)CC)C(=O)N(Cc3cccc4ccccc34)C[C@H]12 (some centres not stated)

Test system: Staphylococcus aureus
Assay: microbe, parasite or virus in culture
Format: functional
Details: time 18 hrs
Remark: another data set of the same source
Description: Antibacterial activity against multidrug-resistant Staphylococcus aureus clinical isolate XJ052 assessed as inhibition of visible growth of bacteria incubated for 18 hrs by absorbance based analysis

SMILES	MIC [µg/mL]
CC1(C)S[C@@H]2[C@H](NC(=O)[C@H](N)c3ccccc3)C(=O)N2[C@H]1C(=O)O [AMPICILLIN]	64 (≈ 183 µM)
CN[C@@H]1[C@@H](O)[C@@H](O[C@@H]2[C@@H](O)[C@H](O[C@H]3O[C@H](CN)CC[C@H]3N)[C@@H](N)C[C@H]2N)OC[C@]1(C)O [GENTAMICIN C1A]	> 128

Test system: Staphylococcus aureus
Assay: microbe, parasite or virus in culture
Format: functional
Details: NRS-108, time 18 hrs
Description: Antibacterial activity against methicillin-resistant Staphylococcus aureus NRS-108 assessed as inhibition of visible growth of bacteria incubated for 18 hrs by absorbance based analysis

SMILES	MIC [µg/mL]
CC1(C)S[C@@H]2[C@H](NC(=O)[C@H](N)c3ccccc3)C(=O)N2[C@H]1C(=O)O [AMPICILLIN]	4 (≈ 11.4 µM)
CN[C@@H]1[C@@H](O)[C@@H](O[C@@H]2[C@@H](O)[C@H](O[C@H]3O[C@H](CN)CC[C@H]3N)[C@@H](N)C[C@H]2N)OC[C@]1(C)O [GENTAMICIN C1A]	0.25 (≈ 0.556 µM)

Test system: Staphylococcus aureus
Assay: microbe, parasite or virus in culture
Format: functional
Details: time 18 hrs
Remark: another data set of the same source
Description: Antibacterial activity against multidrug-resistant Staphylococcus aureus clinical isolate XJ009 assessed as inhibition of visible growth of bacteria incubated for 18 hrs by absorbance based analysis

SMILES	MIC [µg/mL]
CC1(C)S[C@@H]2[C@H](NC(=O)[C@H](N)c3ccccc3)C(=O)N2[C@H]1C(=O)O [AMPICILLIN]	64 (≈ 183 µM)
CN[C@@H]1[C@@H](O)[C@@H](O[C@@H]2[C@@H](O)[C@H](O[C@H]3O[C@H](CN)CC[C@H]3N)[C@@H](N)C[C@H]2N)OC[C@]1(C)O [GENTAMICIN C1A]	64 (≈ 142 µM)

Test system: Staphylococcus aureus
Assay: microbe, parasite or virus in culture
Format: functional
Details: NRS-70, time 18 hrs
Description: Antibacterial activity against methicillin-resistant Staphylococcus aureus NRS-70 assessed as inhibition of visible growth of bacteria incubated for 18 hrs by absorbance based analysis

SMILES	MIC [µg/mL]
CC1(C)S[C@@H]2[C@H](NC(=O)[C@H](N)c3ccccc3)C(=O)N2[C@H]1C(=O)O [AMPICILLIN]	4 (≈ 11.4 µM)
CN[C@@H]1[C@@H](O)[C@@H](O[C@@H]2[C@@H](O)[C@H](O[C@H]3O[C@H](CN)CC[C@H]3N)[C@@H](N)C[C@H]2N)OC[C@]1(C)O [GENTAMICIN C1A]	0.5 (≈ 1.11 µM)

Test system: Staphylococcus aureus
Assay: microbe, parasite or virus in culture
Format: functional
Details: USA300, time 18 hrs
Description: Antibacterial activity against methicillin-resistant Staphylococcus aureus USA300 assessed as inhibition of visible growth of bacteria incubated for 18 hrs by absorbance based analysis

SMILES	MIC [µg/mL]
CN[C@@H]1[C@@H](O)[C@@H](O[C@@H]2[C@@H](O)[C@H](O[C@H]3O[C@H](CN)CC[C@H]3N)[C@@H](N)C[C@H]2N)OC[C@]1(C)O [GENTAMICIN C1A]	1 (≈ 2.22 µM)

Test system: Staphylococcus aureus
Assay: microbe, parasite or virus in culture
Format: functional
Details: NRS-1, time 18 hrs
Description: Antibacterial activity against methicillin-resistant Staphylococcus aureus NRS-1 assessed as inhibition of visible growth of bacteria incubated for 18 hrs by absorbance based analysis

SMILES	MIC [µg/mL]
CC1(C)S[C@@H]2[C@H](NC(=O)[C@H](N)c3ccccc3)C(=O)N2[C@H]1C(=O)O [AMPICILLIN]	32 (≈ 91.6 µM)
CN[C@@H]1[C@@H](O)[C@@H](O[C@@H]2[C@@H](O)[C@H](O[C@H]3O[C@H](CN)CC[C@H]3N)[C@@H](N)C[C@H]2N)OC[C@]1(C)O [GENTAMICIN C1A]	> 128

Test system: Staphylococcus aureus
Assay: microbe, parasite or virus in culture
Format: functional
Details: time 18 hrs
Remark: another data set of the same source
Description: Antibacterial activity against multidrug-resistant Staphylococcus aureus clinical isolate XJ049 assessed as inhibition of visible growth of bacteria incubated for 18 hrs by absorbance based analysis

SMILES	MIC [µg/mL]
CC1(C)S[C@@H]2[C@H](NC(=O)[C@H](N)c3ccccc3)C(=O)N2[C@H]1C(=O)O [AMPICILLIN]	64 (≈ 183 µM)
CN[C@@H]1[C@@H](O)[C@@H](O[C@@H]2[C@@H](O)[C@H](O[C@H]3O[C@H](CN)CC[C@H]3N)[C@@H](N)C[C@H]2N)OC[C@]1(C)O [GENTAMICIN C1A]	128 (≈ 285 µM)

Molecular target: T1, ATP-dependent Clp protease proteolytic subunit (Staphylococcus aureus (strain NCTC 8325), UniProt Q2G036)
T1 sequence (Q2G036 whole entry): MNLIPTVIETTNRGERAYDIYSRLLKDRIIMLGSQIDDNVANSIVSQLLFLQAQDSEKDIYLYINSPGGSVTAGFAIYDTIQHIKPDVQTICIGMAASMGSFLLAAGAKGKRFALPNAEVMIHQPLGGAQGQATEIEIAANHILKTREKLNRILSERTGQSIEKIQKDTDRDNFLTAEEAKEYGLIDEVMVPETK
Assay: Agonist activity at Staphylococcus aureus ClpP extracted from Escherichia coli BL21 (DE3) cells using alpha-casein as substrate assessed as substrate hydrolysis preincubated for 15 mins followed by substrate addition and measured after 2 hrs by SDS-PAGE analysis
Details: not given

SMILES	EC50 [nM]
CCCNC(=O)N1CCC(=O)N2[C@@H]([C@@H](C)CC)C(=O)N(Cc3cccc4ccccc34)C[C@H]12	2200
CC[C@H](C)[C@H]1C(=O)N(Cc2cccc3ccccc23)C[C@@H]2N(C(=O)NCCC3CC3)CCC(=O)N12	1900
O=C1[C@H](Cc2ccccc2)N2C(=O)CCN(C(=O)NCc3ccccc3)[C@H]2CN1Cc1cccc2ccccc12	2900
CC[C@H](C)[C@H]1C(=O)N(Cc2ccc(Cl)cc2Cl)C[C@@H]2N(C(=O)NCCCC(F)(F)F)CCC(=O)N12	1000
CC[C@H](C)[C@H]1C(=O)N(Cc2cccc3ccccc23)C[C@@H]2N(C(=O)NCCC(C)=O)CCC(=O)N12	26100
C#CC[C@H]1C(=O)N(Cc2cccc3ccccc23)C[C@@H]2N(C(=O)NCCCC(F)(F)F)CCC(=O)N21	1900
CC[C@@H](C)[C@H]1C(=O)N(Cc2cccc3ccccc23)C[C@@H]2N(C(=O)NCc3ccc(Br)cc3)CCC(=O)N12	1200
CC[C@H](C)[C@H]1C(=O)N(Cc2cccc3ccccc23)C[C@@H]2N(C(=O)NCCC3CCOC3)CCC(=O)N12 (some centres not stated)	6900
CC[C@H](C)[C@H]1C(=O)N(Cc2ccc(Br)c3ccccc23)C[C@@H]2N(C(=O)NCCCC(F)(F)F)CCC(=O)N12	1940

Further lines, results first:

EC50 [nM]	SMILES
1300	CC(C)C[C@H]1C(=O)N(Cc2cccc3ccccc23)C[C@@H]2N(C(=O)NCCCC(F)(F)F)CCC(=O)N21
3500	O=C1[C@H](CC2CC2)N2C(=O)CCN(C(=O)NCCCC(F)(F)F)[C@H]2CN1Cc1cccc2ccccc12
1400	C=CC[C@H]1C(=O)N(Cc2cccc3ccccc23)C[C@@H]2N(C(=O)NCCCC(F)(F)F)CCC(=O)N21
900	CC[C@H](C)[C@H]1C(=O)N(Cc2cccc3ccccc23)C[C@@H]2N(C(=O)NCc3ccccc3)CCC(=O)N12
2500	C[C@H]1C(=O)N(Cc2cccc3ccccc23)C[C@@H]2N(C(=O)NCc3ccccc3)CCC(=O)N21
1200	CC(C)C[C@H]1C(=O)N(Cc2cccc3ccccc23)C[C@@H]2N(C(=O)NCc3ccccc3)CCC(=O)N21
4500	O=C1[C@H](CO)N2C(=O)CCN(C(=O)NCc3ccccc3)[C@H]2CN1Cc1cccc2ccccc12
1600	O=C1[C@H](CC2CCCCC2)N2C(=O)CCN(C(=O)NCCCC(F)(F)F)[C@H]2CN1Cc1cccc2ccccc12
5200	CCCC(C)NC(=O)N1CCC(=O)N2[C@@H]([C@@H](C)CC)C(=O)N(Cc3cccc4ccccc34)C[C@H]12 (some centres not stated)
